Assay results from US20250326744A1, “PIPERAZINE DERIVATIVE OR SALT THEREOF, AND PHARMACEUTICAL COMPOSITION” (priority 2022, published 2025).
Counter-ions that a name gives are not always drawn.

Tests used:
mexB (PA) strain = assay: Combinational effect with antibacterial agent against Pseudomonas aeruginosa (Test Examples 2 and 4): mexB (PA) strain with LVFX, TC or AZT at 1/4 MIC, EC99; format: cell-based; details: for EC99, mexB (PA), AZT / EC99, mexB (PA), LVFX / EC99, mexB (PA), TC: Table 52, Test Example 2, 16 to 20 hours culture, OD595; for EC99, mexB (PA), AZT / EC99, combinational effect with AZT, mexB (PA): combined with AZT at 1/4 MIC; for EC99, mexB (PA), LVFX / EC99, combinational effect with LVFX, mexB (PA): combined with LVFX at 1/4 MIC; for EC99, mexB (PA), TC / EC99, combinational effect with TC, mexB (PA): combined with TC at 1/4 MIC; for EC99, combinational effect with AZT, mexB (PA) / EC99, combinational effect with LVFX, mexB (PA) / EC99, combinational effect with TC, mexB (PA): mexB (PA) strain, Test Example 4
In short: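 EC99 denotes the minimum test-compound concentration (range 0–800 μM) that suppresses ≥99% of growth, measured by OD595, when combined with ¼ MIC levofloxacin (LVFX), tetracycline or aztreonam. The efflux-pump mutant mexB (PA), expressing mainly MexAB-OprM, was inoculated at 10^4–5 CFU/well in CAMHB for 16–20 h.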

S-3769 strain = assay: Combinational effect with antibacterial agent against Pseudomonas aeruginosa (Test Examples 2 and 4): S-3769 strain with AMK or GM at 1/4 MIC, EC99; format: cell-based; details: for EC99, S-3769 strain, AMK / EC99, S-3769 strain, GM: Table 52, Test Example 2, 16 to 20 hours culture, OD595; for EC99, S-3769 strain, AMK / EC99, combinational effect with AMK, S-3769 strain: combined with AMK at 1/4 MIC; for EC99, S-3769 strain, GM / EC99, combinational effect with GM, S-3769 strain: combined with GM at 1/4 MIC; for EC99, combinational effect with AMK, S-3769 strain / EC99, combinational effect with GM, S-3769 strain: Test Example 4
In short: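 EC99, the lowest test-compound concentration inhibiting growth by ≥99% (OD595), was measured with aminoglycoside AMK or GM held at ¼ MIC. Strain S-3769, a MexY-overexpressing clinical isolate, was cultured in CAMHB at 10^4 to 5 CFU/well for 16–20 h; compound range 0–800 μM.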

Row | Structure (SMILES) | EC99, mexB (PA), AZT (mexB (PA) strain) | EC99, mexB (PA), LVFX (mexB (PA) strain) | EC99, mexB (PA), TC (mexB (PA) strain) | EC99, S-3769 strain, AMK (S-3769 strain) | EC99, S-3769 strain, GM (S-3769 strain) | EC99, combinational effect with AZT, mexB (PA) (mexB (PA) strain) | EC99, combinational effect with LVFX, mexB (PA) (mexB (PA) strain) | EC99, combinational effect with TC, mexB (PA) (mexB (PA) strain) | EC99, combinational effect with AMK, S-3769 strain (S-3769 strain) | EC99, combinational effect with GM, S-3769 strain (S-3769 strain)
1 | CCOc1cccc(F)c1CN1CCN(C(=O)[C@H](N)C2CCN(CCc3coc4ccccc34)CC2)CC1 [Example 152, Hydrobromide of (R)-2-amino-2-(1-(2-(benzofuran-3-yl)ethyl)piperidin-4-yl)-1-(4-(2-ethoxy-6-fluorobenzyl)piperazin-1-yl) ethan-1-one] | C (100 μM<EC99) | C (100 μM<EC99) | C (100 μM<EC99) | S (EC99≤12.5 μM) | S (EC99≤12.5 μM) | – | – | – | – | –
2 | CCSc1cc(F)ccc1CN1CCN(C(=O)[C@H](N)C2CCN(CCc3ccc(O)cc3-c3ccccc3)CC2)CC1 [Example 624, Hydrochloride of (R)-2-amino-1-(4-(2-(ethylthio)-4-fluorobenzyl)piperazin-1-yl)-2-(1-(2-(5-hydroxy-[1,1-biphenyl]-2-yl)ethyl)piperidin-4-yl)ethan-1-one] | – | – | – | – | – | C (100 μM<EC99) | B (25 μM<EC99≤100 μM) | B (25 μM<EC99≤100 μM) | B (25 μM<EC99≤100 μM) | B (25 μM<EC99≤100 μM)
3 | N[C@@H](C(=O)N1CCN(Cc2ccccc2SC(F)(F)F)CC1)C1CCN(CCc2cc(Cl)ccc2-c2ccccc2)CC1 [Example 529, Hydrobromide of (R)-2-amino-2-(1-(2-(4-chloro-[1,1-biphenyl]-2-yl)ethyl)piperidin-4-yl)-1-(4-(2-((trifluoromethyl)thio)benzyl)piperazin-1-yl)ethan-1-one] | – | – | – | – | – | C (100 μM<EC99) | A (12.5 μM<EC99≤25 μM) | A (12.5 μM<EC99≤25 μM) | A (12.5 μM<EC99≤25 μM) | B (25 μM<EC99≤100 μM)
4 | CCSc1ccc(O)cc1CN1CCN(C(=O)[C@H](N)C2CCN(CCc3cc(Cl)ccc3-c3cc(O)cc(F)c3)CC2)CC1 [Example 620, (R)-2-amino-2-(1-(2-(4-chloro-3′-fluoro-5′-hydroxy-[1,1′-biphenyl]-2-yl)ethyl)piperidin-4-yl)-1-(4-(2-(ethylthio)-5-hydroxybenzyl)piperazin-1-yl)ethan-1-one] | – | – | – | – | – | S (EC99≤12.5 μM) | S (EC99≤12.5 μM) | S (EC99≤12.5 μM) | S (EC99≤12.5 μM) | S (EC99≤12.5 μM)
5 | CCOc1cccc(F)c1CN1CCN(C(=O)[C@H](N)C2CCN(CCc3cc(Cl)ccc3-c3cccc(C)c3)CC2)CC1 [Example 68, Hydrobromide of (R)-2-amino-2-(1-(2-(4-chloro-3′-methyl-[1,1′-biphenyl]-2-yl)ethyl)piperidin-4-yl)-1-(4-(2-ethoxy-6-fluorobenzyl)piperazin-1-yl)ethan-1-one] | B (25 μM<EC99≤100 μM) | B (25 μM<EC99≤100 μM) | B (25 μM<EC99≤100 μM) | A (12.5 μM<EC99≤25 μM) | A (12.5 μM<EC99≤25 μM) | – | – | – | – | –
6 | CCOc1cccc(F)c1CN1CCN(C(=O)[C@H](N)C2CCN(CCc3cc(Cl)ccc3-c3cn[nH]c3)CC2)CC1 [Example 502, Hydrobromide of (R)-2-amino-2-(1-(S-chloro-2-(1H-pyrazol-4-yl)phenethyl)piperidin-4-yl)-1-(4-(2-ethoxy-6-fluorobenzyl)piperazin-1-yl)ethan-1-one] | – | – | – | – | – | C (100 μM<EC99) | B (25 μM<EC99≤100 μM) | B (25 μM<EC99≤100 μM) | S (EC99≤12.5 μM) | S (EC99≤12.5 μM)
7 | COc1c(CN2CCN(C(=O)[C@H](N)C3CCN(CCc4cc(Cl)ccc4-c4ccccc4)CC3)CC2)cccc1B(O)O [Example 537, Hydrobromide of (R)-(3-((4-(2-amino-2-(1-(2-(4-chloro-[1,1-biphenyl]-2-yl)ethyl)piperidin-4-yl)acetyl)piperazin-1-yl)methyl)-2-methoxyphenyl)boronic acid] | – | – | – | – | – | C (100 μM<EC99) | C (100 μM<EC99) | B (25 μM<EC99≤100 μM) | B (25 μM<EC99≤100 μM) | A (12.5 μM<EC99≤25 μM)
8 | CCSc1cc(F)ccc1CN1CCN(C(=O)[C@H](N)C2CCN(CCc3cc(Cl)ccc3-c3cccc(O)c3)CC2)CC1 [Example 593, Hydrochloride of (R)-2-amino-2-(1-(2-(4-chloro-3′-hydroxy-[1,1-biphenyl]-2-yl)ethyl)piperidin-4-yl)-1-(4-(2-(ethylthio)-4-fluorobenzyl)piperazin-1-yl) ethan-1-one] | – | – | – | – | – | B (25 μM<EC99≤100 μM) | A (12.5 μM<EC99≤25 μM) | A (12.5 μM<EC99≤25 μM) | S (EC99≤12.5 μM) | B (25 μM<EC99≤100 μM)
9 | CCOc1cccc(F)c1CN1CCN(C(=O)[C@H](N)C2CCN(CCc3ccccc3-c3cc(F)cc(F)c3)CC2)CC1 [Example 48, Hydrobromide of (R)-2-amino-2-(1-(2-(3′,5′-difluoro-[1,1′-biphenyl]-2-yl)ethyl)piperidin-4-yl)-1-(4-(2-ethoxy-6-fluorobenzyl)piperazin-1-yl)ethan-1-one] | B (25 μM<EC99≤100 μM) | C (100 μM<EC99) | B (25 μM<EC99≤100 μM) | B (25 μM<EC99≤100 μM) | A (12.5 μM<EC99≤25 μM) | – | – | – | – | –
10 | N[C@@H](C(=O)N1CCN(Cc2cccc3ccoc23)CC1)C1CCN(CCc2cc(Cl)ccc2-c2ccccc2)CC1 [Example 39, Hydrobromide of (R)-2-amino-1-(4-(benzofuran-7-ylmethyl)piperazin-1-yl)-2-(1-(2-(4-chloro-[1,1′-biphenyl]-2-yl)ethyl)piperidin-4-yl)ethan-1-one] | A (12.5 μM<EC99≤25 μM) | B (25 μM<EC99≤100 μM) | A (12.5 μM<EC99≤25 μM) | A (12.5 μM<EC99≤25 μM) | B (25 μM<EC99≤100 μM) | – | – | – | – | –
